Data as given in patent US20150231167A1, “TREATMENT OF HEMATOLOGICAL NEOPLASMS” (THOMAS JEFFERSON UNIVERSITY, priority 2012, published 2015).

Assays:
Stat5a = biological target: T1, Stat5a (Homo sapiens, UniProt P42229); assay: Stat5a dimerization, co-immunoprecipitation of FLAG- and MYC-tagged Stat5a in PC-3 cells; format: cell-based; settings: pre-treated 2 h, hPrl 10 nM 30 minutes
T1 construct: expressed in transfected cells; host or cells: PC-3
T1 sequence (P42229 1-794): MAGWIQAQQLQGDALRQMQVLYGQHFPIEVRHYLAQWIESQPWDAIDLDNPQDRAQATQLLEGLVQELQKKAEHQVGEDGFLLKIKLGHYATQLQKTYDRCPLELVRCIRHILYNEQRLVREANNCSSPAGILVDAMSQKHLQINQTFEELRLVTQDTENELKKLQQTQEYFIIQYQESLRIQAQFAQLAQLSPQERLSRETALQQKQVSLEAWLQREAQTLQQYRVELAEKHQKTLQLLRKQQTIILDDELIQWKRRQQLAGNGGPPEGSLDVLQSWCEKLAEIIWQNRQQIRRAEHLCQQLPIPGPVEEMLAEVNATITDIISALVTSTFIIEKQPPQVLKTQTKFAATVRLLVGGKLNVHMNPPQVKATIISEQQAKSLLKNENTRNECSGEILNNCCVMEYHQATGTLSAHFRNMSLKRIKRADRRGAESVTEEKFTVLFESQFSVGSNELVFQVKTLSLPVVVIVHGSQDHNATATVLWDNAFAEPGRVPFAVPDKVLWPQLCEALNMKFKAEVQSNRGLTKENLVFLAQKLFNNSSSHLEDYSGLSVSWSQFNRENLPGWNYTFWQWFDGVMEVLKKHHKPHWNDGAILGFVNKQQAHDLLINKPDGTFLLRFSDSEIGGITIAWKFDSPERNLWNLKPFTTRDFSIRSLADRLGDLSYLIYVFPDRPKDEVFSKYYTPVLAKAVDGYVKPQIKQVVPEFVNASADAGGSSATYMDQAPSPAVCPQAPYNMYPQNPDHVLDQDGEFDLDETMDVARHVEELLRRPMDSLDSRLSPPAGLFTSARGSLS
Protocol: FLAG-tagged Stat5a and MYC-tagged Stat5a were generated as follows by standard molecular biology cloning techniques. Plasmid pCMV3-FLAG-Stat5a, pCMV3-MYC-Stat5a and pPr1R were co-transfected using FuGENE6 (Roche) into PC-3 cells (2 μg of each plasmid per 1×10^7 cells). The cells were starved for 20 hours, pre-treated with N^6-benzyladenosine for 2 h, then stimulated with hPrl (10 nM) in RPMI 1640 without serum for 30 minutes. The cell lysates were immunoprecipitated with 25 μl anti-FLAG M2 […] affinity gel (2 μg/ml, Sigma), anti-MYC pAb (1 μg/ml, Upstate) or normal rabbit serum (NRS). The primary antibodies were used in the immunoblottings at the following concentrations: anti-FLAG pAb (1:1000; Stratagene), anti-MYC mAb (1:1000; Sigma), anti-Stat5a/b mAb (1:250) (Transduction Laboratories) detected by horseradish peroxidase-conjugated secondary antibodies.
Lanes 1, 2, 4, 6 and 8 represent cells stimulated with human prolactin (Prl) for 30 minutes which induces dimerization of Stat5. Two hours prior to Prl-stimulation, the cells had been treated with DMSO (lanes 1-4), the control compound C5 (lanes 5 and 6) or N^6-benzyladenosine (lanes 7 and 8) to test whether the Stat5a/b-inhibitor compound, N6BA, would be able to inhibit dimerization of Stat5. […] It should be noted the drug effect in this study was not due to cell apoptosis induction, as the treatment time was only 2 hours.

Stat5a/b [1] = assay: Western blot of Stat5a/b phosphorylation in K562 cells; format: cell-based, human
Protocol: (§1) Exponentially growing K562 cells were treated with 5 μM N6BAP or pimozide for 3 h after which the cells were harvested. Pimozide is a Stat5 inhibitor in leukemia cells (Nelson et al., Blood 117:3421-3429, 2011). Cell pellets were solubilized in lysis buffer [10 mM Tris-HCl (pH 7.6), 5 mM EDTA, 50 mM sodium chloride, 30 mM sodium pyrophosphate, 50 mM sodium fluoride, 1 mM sodium orthovanadate, 1% Triton X-100, 1 mM phenylmethylsulfonyl fluoride, 5 μg/ml aprotinin, 1 μg/ml pepstatin A, and 2 μg/ml leupeptin], rotated end-over-end at 4° C. for 60 min, and insoluble material was pelleted at 12,000×g for 30 min at 4° C. The protein concentrations of clarified cell lysates were determined by simplified Bradford method (Bio-Rad Laboratories, Hercules, Calif.). Western blotting of the lysates was carried out using, as primary antibodies, the following antibodies at the following concentrations: anti-phosphotyrosine-Stat5a/b (Y694/Y699) mAb (1 μg/ml, Advantex BioReagents, Conroe, Tex.), anti-Stat5ab mAb (1:250; BD Biosciences, San Jose, Calif.), anti-human Abl mAb (Calbiochem) or anti-phosphotyrosine mAb (Millipore).
(§2) Exponentially growing K562 cells were treated with N6BA for 3 h or 6 h after which the cells were harvested. […] The protein concentrations of clarified cell lysates were determined by simplified Bradford method (Bio-Rad Laboratories, Hercules, Calif.). […]

K562 cells = assay: K562 cell viability, MTS metabolic activity assay; format: cell-based, human; settings: 72 h at 3.1, 6.3, 12.5, 25 and 50 μM
Protocol: (§3) Exponentially growing K562 cells were treated with N6BAP or the control compound C5 for 72 h at 3.1, 6.3, 12.5, 25 and 50 μM indicated concentrations. The cell viability was assessed by MTS ([…]) metabolic activity assay (CellTiter 96® AQueous Assay kit).
as §3, with “K562 leukemia” for “K562”, “N6BA” for “N6BAP”, “μM” for “μM indicated”

Stat5a/b [2] = assay: Western blot of Stat5a/b phosphorylation in parental KCL22 cells (KCL22S); format: cell-based, human; settings: various concentrations, 6 h or 16 h
Protocol: (§4) Exponentially growing KCL22 and KCL22R cells were treated with N6BAP at various concentrations for 6 h or 16 h after which the cells were harvested. Cell pellets were solubilized in lysis buffer [10 mM Tris-HCl (pH 7.6), 5 mM EDTA, 50 mM sodium chloride, 30 mM sodium pyrophosphate, 50 mM sodium fluoride, 1 mM sodium orthovanadate, 1% Triton X-100, 1 mM phenylmethylsulfonyl fluoride, 5 μg/ml aprotinin, 1 μg/ml pepstatin A, and 2 μg/ml leupeptin], rotated end-over-end at 4° C. for 60 min, and insoluble material was pelleted at 12,000×g for 30 min at 4° C. The protein concentrations of clarified cell lysates were determined by simplified Bradford method (Bio-Rad Laboratories, Hercules, Calif.). Western blotting of the lysates was carried out using, as primary antibodies, the following antibodies at the following concentrations: anti-phosphotyrosine-Stat5a/b (Y694/Y699) mAb (1 μg/ml, Advantex BioReagents, Conroe, Tex.), anti-Stat5ab mAb (1:250; BD Biosciences, San Jose, Calif.) or anti-actin pAb (Sigma). Anti-actin was included as a control.
as §2

Stat5 = Stat5 transcriptional activity, beta-casein promoter luciferase reporter gene assay in PC-3 cells; format: cell-based, human; settings: pretreated 1 hour, 10 nM hPrl for 16 hours, firefly/Renilla luciferase
Protocol: Cells of the human prostate cell line PC-3 were plated into 96-well plate at the density of 2×10^5 per well. After 24 hours of plating, cells were transiently co-transfected using FuGENE6 (Roche) with 0.25 μg of each of pStat5a or pStat5b, pPr1R (prolactin receptor) plasmids, 0.5 μg of pBeta-casein-luc and 0.025 μg of pRL-TK (Renilla luciferase plasmids as an internal control. After another 24 hours of transfection, the cells were starved in serum-free medium for 8 hours, pretreated with N^6-benzyladenosine (“N6BA”), or the control compound C5, for 1 hour, and then stimulated with 10 nM human prolactin (hPrl) in the serum-free medium for additional 16 hours. The lysates were assayed for firefly and Renilla luciferase activities using the Dual-Luciferase reporter assay system (Promega). Three independent experiments were carried out in triplicate. The firefly luciferase activity was normalized to the Renilla luciferase activity of the same sample, and the mean was calculated from the parallels. From the mean values of each independent run, the overall mean and its standard deviation (S.D.) were calculated.

Stat5a/b [3] = assay: Western blot of Stat5a/b phosphorylation in imatinib-resistant KCL22 cells (KCL22R); format: cell-based, human; settings: various concentrations, 6 h or 16 h
Protocol: as §4, §2

[4] = system: BCR-ABL-driven human leukemic cell lines; assay: Cell cycle progression analysis (data not shown); format: cell-based
BCR-ABL = biological target: T2, BCR-ABL (Homo sapiens, UniProt P00519); assay: Western blot of BCR-ABL phosphorylation and protein levels in K562 cells; format: cell-based; settings: 5 μM, 3 h
T2 construct: endogenous in cells; host or cells: K562; the other entry of the earlier key: BCR (P11274, Breakpoint cluster region protein)
Protocol: as §1

BV173 T315I = assay: Growth of imatinib-resistant BV173 T315I line, trypan blue viable cell count; format: cell-based, human; settings: 5 μM; 24, 48, 72 and 96 hours
Protocol: (§5) KKCL22 and BV173 parent cell lines, and imatinib-resistant counterpart cell lines, were cultured in the presence culture medium without any compounds (Ctrl), DMSO (0.1%), the control compound C5 (5 μM) or N6BAP at 5 μM concentration. The imatinib-resistant lines are characterizes by the bcr-abl T315I mutation, which provides imatinib resistance. The cells were harvested at 24, 48, 72 and 96 hours, trypan blue stained and the numbers of viable cells were counted for each time-point.

K562 parent cell line = assay: Growth of K562 parent cell line, trypan blue viable cell count; format: cell-based, human; settings: 5 μM; 24, 48, 72 and 96 hours
Protocol: (§6) The K562 parent cell line and an imatinib-resistant K562 line were cultured in the presence of culture medium without any compounds (Ctrl), DMSO (0.1%), the control compound C5 (5 μM) or N6BAP at 5 μM concentration. The cells were harvested at 24, 48, 72 and 96 hours, trypan blue stained and the numbers of viable cells were counted for each time-point.

KCL22 = assay: Growth of KCL22 parent cell line, trypan blue viable cell count; format: cell-based, human; settings: 5 μM; 24, 48, 72 and 96 hours
Protocol: as §5

KCL22 T315I = assay: Growth of imatinib-resistant KCL22 T315I line, trypan blue viable cell count; format: cell-based, human; settings: 5 μM; 24, 48, 72 and 96 hours
Protocol: as §5

[5] = system: imatinib-resistant K562 line; assay: Growth of imatinib-resistant K562 line, trypan blue viable cell count; format: cell-based, human; settings: 5 μM; 24, 48, 72 and 96 hours
Protocol: as §6

BV173 = assay: Growth of BV173 parent cell line, trypan blue viable cell count; format: cell-based, human; settings: 5 μM; 24, 48, 72 and 96 hours
Protocol: as §5

T2 sequence (P00519 with tags, fused parts or gaps): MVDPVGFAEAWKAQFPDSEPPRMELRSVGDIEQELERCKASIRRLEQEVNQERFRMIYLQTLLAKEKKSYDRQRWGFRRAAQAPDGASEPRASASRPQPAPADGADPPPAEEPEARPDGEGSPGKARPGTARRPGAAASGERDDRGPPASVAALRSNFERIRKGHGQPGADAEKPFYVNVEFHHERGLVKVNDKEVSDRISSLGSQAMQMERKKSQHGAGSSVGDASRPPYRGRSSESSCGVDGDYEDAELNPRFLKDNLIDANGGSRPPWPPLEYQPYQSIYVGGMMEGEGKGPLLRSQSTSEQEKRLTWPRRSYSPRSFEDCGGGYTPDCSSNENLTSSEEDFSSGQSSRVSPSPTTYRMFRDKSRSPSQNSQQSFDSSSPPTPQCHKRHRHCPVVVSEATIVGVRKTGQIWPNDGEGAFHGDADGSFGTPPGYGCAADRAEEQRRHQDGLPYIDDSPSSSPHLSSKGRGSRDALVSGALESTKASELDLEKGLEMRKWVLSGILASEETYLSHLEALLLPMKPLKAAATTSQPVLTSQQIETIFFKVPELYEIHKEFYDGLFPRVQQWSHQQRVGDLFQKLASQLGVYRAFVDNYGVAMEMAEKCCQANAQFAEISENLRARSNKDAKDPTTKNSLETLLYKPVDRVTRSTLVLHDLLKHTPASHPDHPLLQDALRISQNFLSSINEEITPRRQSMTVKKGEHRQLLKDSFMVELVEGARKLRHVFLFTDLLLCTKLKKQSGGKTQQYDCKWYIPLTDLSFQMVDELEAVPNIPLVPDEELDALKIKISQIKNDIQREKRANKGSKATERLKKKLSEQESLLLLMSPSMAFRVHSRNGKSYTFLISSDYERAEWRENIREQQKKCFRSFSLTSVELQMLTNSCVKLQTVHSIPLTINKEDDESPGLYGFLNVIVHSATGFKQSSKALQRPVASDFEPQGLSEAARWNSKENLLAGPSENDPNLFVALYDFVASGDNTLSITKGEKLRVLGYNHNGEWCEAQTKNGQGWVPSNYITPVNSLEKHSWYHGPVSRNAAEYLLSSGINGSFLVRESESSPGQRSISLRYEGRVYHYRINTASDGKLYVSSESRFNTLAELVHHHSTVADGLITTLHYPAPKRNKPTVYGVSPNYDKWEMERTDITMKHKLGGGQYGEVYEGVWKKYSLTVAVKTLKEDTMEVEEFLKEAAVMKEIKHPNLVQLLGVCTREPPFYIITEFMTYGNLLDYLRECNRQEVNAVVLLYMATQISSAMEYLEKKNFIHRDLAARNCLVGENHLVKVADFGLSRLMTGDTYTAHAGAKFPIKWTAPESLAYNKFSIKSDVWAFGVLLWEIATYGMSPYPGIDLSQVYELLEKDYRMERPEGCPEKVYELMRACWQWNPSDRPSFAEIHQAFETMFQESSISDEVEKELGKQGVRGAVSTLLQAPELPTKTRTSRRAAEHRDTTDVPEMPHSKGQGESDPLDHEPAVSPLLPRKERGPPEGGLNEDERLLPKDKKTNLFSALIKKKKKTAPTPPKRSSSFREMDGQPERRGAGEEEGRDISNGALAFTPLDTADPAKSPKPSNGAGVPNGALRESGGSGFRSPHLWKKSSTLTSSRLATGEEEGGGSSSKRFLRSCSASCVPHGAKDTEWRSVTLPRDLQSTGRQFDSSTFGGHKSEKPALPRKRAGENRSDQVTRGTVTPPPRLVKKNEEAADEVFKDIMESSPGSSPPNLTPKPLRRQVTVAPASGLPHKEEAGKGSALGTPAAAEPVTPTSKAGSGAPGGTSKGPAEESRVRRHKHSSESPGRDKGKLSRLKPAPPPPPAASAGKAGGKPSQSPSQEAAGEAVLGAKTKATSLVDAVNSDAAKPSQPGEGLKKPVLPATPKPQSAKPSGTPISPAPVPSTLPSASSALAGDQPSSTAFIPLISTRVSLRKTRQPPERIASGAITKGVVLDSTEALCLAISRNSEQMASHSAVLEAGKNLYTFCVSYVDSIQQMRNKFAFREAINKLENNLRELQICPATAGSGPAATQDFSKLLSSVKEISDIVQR

Row | Compound | Stat5a dimerization (Stat5a) | phosphorylation of Stat5 (Stat5a/b [1]; indicated concentrations, 3 h or 6 h) | number of viable K562 cells (MTS) (K562 cells) | phosphorylation of Stat5 (Stat5a/b [2]) | transcriptional activity of Stat5 (Stat5) | phosphorylation of Stat5 (Stat5a/b [3]) | apoptotic death (cell cycle progression analysis) [4] | BCR-ABL protein levels (BCR-ABL) | phosphorylation of BCR-ABL (BCR-ABL; anti-phosphotyrosine mAb) | growth of imatinib-resistant BV173 T315I (BV173 T315I) | growth of the parental K562 line (K562 parent cell line) | phosphorylation of Stat5 (Stat5a/b [1]; 5 μM, 3 h, Western blot anti-pYStat5) | growth of parental cell line KCL22 (KCL22) | growth of imatinib-resistant KCL22 T315I (KCL22 T315I) | growth of the imatinib-resistant K562 cell line [5] | growth of parental cell line BV173 (BV173)
1 | Nc1nc(SCc2cccnc2)[nH]c(=O)c1NC(=O)c1ccco1 [C5, reference compound] | did not inhibit dimerization of Stat5a | – | – | – | – | – | – | – | – | – | – | – | – | – | – | –
2 | OC[C@H]1O[C@@H](n2cnc3c(NCc4ccccc4)ncnc32)[C@H](O)[C@@H]1O [N6BA, N^6-benzyladenosine] | effectively inhibited Stat5a dimerization | inhibits phosphorylation of Stat5 | decreased the number of K562 cells | inhibits phosphorylation of Stat5 | inhibits transcriptional activity of Stat5 | inhibits phosphorylation of Stat5 | – | – | – | – | – | – | – | – | – | –
3 | O=P(O)(O)OC[C@H]1O[C@@H](n2cnc3c(NCc4ccccc4)ncnc32)[C@H](O)[C@@H]1O [N6BAP, N^6-benzyladenosine-5′-monophosphate] | – | – | reduces the number of viable K562 human leukemia cells | blocks phosphorylation of Stat5 | – | blocks phosphorylation of Stat5 | induced apoptotic death | did not affect | did not affect phosphorylation of BCR-ABL | blocked the growth of the corresponding imatinib-resistant cell lines | blocked not only the growth of the parental K562 line | blocks phosphorylation of Stat5 | blocked not only the growth of the parental cell lines | blocked the growth of the corresponding imatinib-resistant cell lines | blocked the growth of the imatinib-resistant cell line | blocked not only the growth of the parental cell lines
